Molecules are shown by their SMILES. Bounds are passed on as bounds.

This assay has as its target T1, PDE1A (Homo sapiens, UniProt P54750).
T1 construct: purchased SignalChem
As to the kind of experiment: In vitro detection of phosphodiesterase (PDE): PDE1A enzyme activity by fluorescence polarization immunoassay. Type of assay: biochemical. The following applies: human-derived enzyme, cAMP or cGMP substrate; read-out: IC50s for PDE1. On the procedure: Test 1: In Vitro Detection of Phosphodiesterase (PDE)
the enzyme activity of PDE1A was determined by detecting the production of AMP/GMP by fluorescence polarization immunoassay, wherein AlexaFluor 633 labeled AMP/GMP was used to replace AMP/GMP to bind with the antibody.
Reaction buffer: 10 mM Tris-HCl, pH 7.5, 5 mM magnesium chloride, 0.01% Brij 35, 1 mM DTT and 1% DMSO;
Enzyme substrate: […] cAMP or cGMP (Ca^2+-calmodulin acts as a cofactor of PDE1A)
Detection reagent: Transcreener® AMP2/GMP2 antibody; AMP2/GMP2 AlexaFluor 633 tracer.
Experimental Procedure and Method:
1. Human-derived enzyme (commercially available from SignalChem) to be tested and substrate were diluted with freshly prepared reaction buffer;
2. The enzyme solution (with a concentration of 3 pM) was added to the holes of the microplates;
3. A series of solutions of the compounds in 100% DMSO (with the desired concentrations) were added to the holes containing the enzyme solution by Echo550, and then the microplates were incubated for 10 minutes at room temperature;
4. The substrate solution was added to the holes containing the enzyme and compounds to start the reaction;
5. The microplates were incubated for 1 hour under room temperature and vibration;
6. The detection mixture (tracer and antibody in stop buffer) was added to stop the enzyme reaction, and the microplates were incubated for 90 minutes under vibration;
7. The equipment EnVision (PerkinElmer), Cy5 FP Ex FP 620, Em S-pol 688/P-pol 688, FP mirror D658fp/D688 was used to detect the reaction mixture, and Ex/Em 620/688 was used to detect the fluorescence polarization.
In the Excel table, the enzyme activity corresponding to the FP signal was found on the AMP/GMP standard curve by reference to the DMSO negative control, and then was converted to product concentration (nM). GraphPad Prism was used to analyze and calculate the IC50 values.
Background: Fluorescence polarisation rises when a labelled molecule tumbles more slowly, as on binding a larger partner.
With `CCc1oc(C2=C[C@]3(CC)CCCN4CCc5c(n2c2ccccc52)[C@@H]43)nc1C` [Example 53, 5-ethyl-2-((4^1S,13aS)-13a-ethyl-2,3,4^1,5,6,13a-hexahydro-1H-indolo[3,2,1-de]pyrido[3,2,1-ij][1,5]naphthyridin-12-yl)-4-methyloxazole], the IC50 is ≤ 1000 nM.
On to `CC[C@@]12C=C(c3nc(C)c(C(C)C)o3)n3c4c(c5ccccc53)CCN(CCC1)[C@H]42` [Example 54, 2-((4^1S,13aS)-13a-ethyl-2,3,4^1,5,6,13a-hexahydro-1H-indolo[3,2,1-de]pyrido[3,2,1-ij][1,5]naphthyridin-12-yl)-5-isopropyl-4-methyloxazole], for which the IC50 is 1000 to 20000 nM.
As for `CC[C@@]12C=C(c3nc4c(o3)CCCC4)n3c4c(c5ccccc53)CCN(CCC1)[C@H]42` [Example 55, 2-((4^1S,13aS)-13a-ethyl-2,3,4^1,5,6,13a-hexahydro-1H-indolo[3,2,1-de]pyrido[3,2,1-ij][1,5]naphthyridin-12-yl)-4,5,6,7-tetrahydrobenzo[d]oxazole], the figure is ≤ 1000 nM.
As for `CCc1nc(C2=C[C@]3(CC)CCCN4CCc5c(n2c2ccccc52)[C@@H]43)oc1C` [Example 56, 4-ethyl-2-((4^1S,13aS)-13a-ethyl-2,3,4^1,5,6,13a-hexahydro-1H-indolo[3,2,1-de]pyrido[3,2,1-ij][1,5]naphthyridin-12-yl)-5-methyloxazole], the figure is ≤ 1000 nM.
As for `CC[C@@]12C=C(c3nc(C(C)C)c(C)o3)n3c4c(c5ccccc53)CCN(CCC1)[C@H]42` [Example 57, 2-((4^1S,13aS)-13a-ethyl-2,3,4^1,5,6,13a-hexahydro-1H-indolo[3,2,1-de]pyrido[3,2,1-ij][1,5]naphthyridin-12-yl)-4-isopropyl-5-methyloxazole], the figure is ≤ 1000 nM; as for `CC[C@@]12C=C(c3nc(C)c(C4CC4)o3)n3c4c(c5ccccc53)CCN(CCC1)[C@H]42` [Example 58, 5-cyclopropyl-2-((4^1S,13aS)-13a-ethyl-2,3,4^1,5,6,13a-hexahydro-1H-indolo[3,2,1-de]pyrido[3,2,1-ij][1,5]naphthyridin-12-yl)-4-methyloxazole], ≤ 1000 nM; as for `CC[C@@]12C=C(c3nc(C)c(C(=O)OC)o3)n3c4c(c5ccccc53)CCN(CCC1)[C@H]42` [Example 59, Methyl-2-((4^1S,13aS)-13a-ethyl-2,3,4^1,5,6,13a-hexahydro-1H-indolo[3,2,1-de]pyrido[3,2,1-ij][1,5]naphthyridin-12-yl)-4-methyloxazole-5-carbonate], ≤ 1000 nM.
Consider `CC[C@@]12C=C(c3nc(C)c(C(C)(C)O)o3)n3c4c(c5ccccc53)CCN(CCC1)[C@H]42` [Example 60, 2-(2-((4^1S,13aS)-13a-ethyl-2,3,4^1,5,6,13a-hexahydro-1H-indolo[3,2,1-de]pyrido[3,2,1-ij][1,5]naphthyridin-12-yl)-4-methyloxazol-5-yl)propan-2-ol], for which the IC50 lay in the range of 1000 to 20000 nM.
With `CC[C@@]12C=C(c3nc(C)c(CO)o3)n3c4c(c5ccccc53)CCN(CCC1)[C@H]42` [Example 61, (2-((4^1S,13aS)-13a-ethyl-2,3,4^1,5,6,13a-hexahydro-1H-indolo[3,2,1-de]pyrido[3,2,1-ij][1,5]naphthyridin-12-yl)-4-methyloxazol-5-yl)methanol], the IC50 was ≤ 1000 nM.
As for `CC[C@@]12C=C(c3nc(C)c(C(N)=O)o3)n3c4c(c5ccccc53)CCN(CCC1)[C@H]42` [Example 62, 2-((4^1S,13aS)-13a-ethyl-2,3,4^1,5,6,13a-hexahydro-1H-indolo[3,2,1-de]pyrido[3,2,1-ij][1,5]naphthyridin-12-yl)-4-methyloxazole-5-carboxamide], the figure is 1000 to 20000 nM; as for `CC[C@@]12C=C(c3nc(C)c(C#N)o3)n3c4c(c5ccccc53)CCN(CCC1)[C@H]42` [Example 63, 2-((4^1S,13aS)-13a-ethyl-2,3,4^1,5,6,13a-hexahydro-1H-indolo[3,2,1-de]pyrido[3,2,1-ij][1,5]naphthyridin-12-yl)-4-methyloxazole-5-carbonitrile], ≤ 1000 nM; as for `CC[C@@]12C=C(c3nc(C)c(C(=O)NC)o3)n3c4c(c5ccccc53)CCN(CCC1)[C@H]42` [Example 64, 2-((4^1S,13aS)-13a-ethyl-2,3,4^1,5,6,13a-hexahydro-1H-indolo[3,2,1-de]pyrido[3,2,1-ij][1,5]naphthyridin-12-yl)-N,4-dimethyloxazole-5-carboxamide], ≤ 1000 nM.
As for `CC[C@@]12C=C(c3nc(C)c(C(=O)N(C)C)o3)n3c4c(c5ccccc53)CCN(CCC1)[C@H]42` [Example 65, 2-((4^1S,13aS)-13a-ethyl-2,3,4^1,5,6,13a-hexahydro-1H-indolo[3,2,1-de]pyrido[3,2,1-ij][1,5]naphthyridin-12-yl)-N,N,4-trimethyloxazole-5-carboxamide], the figure is ≤ 1000 nM; as for `CC[C@@]12C=C(c3nc4c(o3)CCOC4)n3c4c(c5ccccc53)CCN(CCC1)[C@H]42` [Example 66, 2-((4^1S,13aS)-13a-ethyl-2,3,4^1,5,6,13a-hexahydro-1H-indolo[3,2,1-de]pyrido[3,2,1-ij][1,5]naphthyridin-12-yl)-6,7-dihydro-4H-pyrano[3,4-d]oxazole], ≤ 1000 nM.
As for `CC[C@@]12C=C(c3nc(C)c(N4CCOCC4)o3)n3c4c(c5ccccc53)CCN(CCC1)[C@H]42` [Example 67, 4-(2-((4^1S,13aS)-13a-ethyl-2,3,4^1,5,6,13a-hexahydro-1H-indolo[3,2,1-de]pyrido[3,2,1-ij][1,5]naphthyridin-12-yl)-4-methyloxazol-5-yl)morpholine], the figure is ≤ 1000 nM; as for `CC[C@@]12C=C(c3nc(C)c(C)o3)n3c4c(c5ccc(S(=O)(=O)NC)cc53)CCN(CCC1)[C@H]42` [Example 68, (4^1S,13aS)-12-(4,5-dimethyloxazol-2-yl)-13a-ethyl-N-methyl-2,3,4^1,5,6,13a-hexahydro-1H-indolo[3,2,1-de]pyrido[3,2,1-ij][1,5]naphthyridin-9-sulfonamide], ≤ 1000 nM.
On to `CC[C@@]12C=C(c3nc(C)c(C)o3)n3c4c(c5ccc(S(=O)(=O)N(C)C)cc53)CCN(CCC1)[C@H]42` [Example 69, (4^1S,13aS)-12-(4,5-dimethyloxazol-2-yl)-13a-ethyl-N,N-dimethyl-2,3,4^1,5,6,13a-hexahydro-1H-indolo[3,2,1-de]pyrido[3,2,1-ij][1,5]naphthyridin-9-sulfonamide], for which the IC50 is 1000 to 20000 nM.
As for `CC[C@@]12C=C(c3nc(C)c(C)o3)n3c4c(c5ccc(S(=O)(=O)NCCCOC)cc53)CCN(CCC1)[C@H]42` [Example 70, (4^1S,13aS)-12-(4,5-dimethyloxazol-2-yl)-13a-ethyl-N-(3-methoxylpropyl)-2,3,4^1,5,6,13a-hexahydro-1H-indolo[3,2,1-de]pyrido[3,2,1-ij][1,5]naphthyridin-9-sulfonamide], the figure is ≤ 1000 nM; as for `CC[C@@]12C=C(c3nc(C)c(C)o3)n3c4c(c5cc(S(=O)(=O)N(C)C)ccc53)CCN(CCC1)[C@H]42` [Example 71, (4^1S,13aS)-12-(4,5-dimethyloxazol-2-yl)-13a-ethyl-N,N-dimethyl-2,3,4^1,5,6,13a-hexahydro-1H-indolo[3,2,1-de]pyrido[3,2,1-ij][1,5]naphthyridin-8-sulfonamide], 1000 to 20000 nM.
As to `CC[C@@]12C=C(c3nc(C)c(C)o3)n3c4c(c5cc(S(=O)(=O)NCCCOC)ccc53)CCN(CCC1)[C@H]42` [Example 72, (4^1S,13aS)-12-(4,5-dimethyloxazol-2-yl)-13a-ethyl-N-(3-methoxylpropyl)-2,3,4^1,5,6,13a-hexahydro-1H-indolo[3,2,1-de]pyrido[3,2,1-ij][1,5]naphthyridin-9-sulfonamide], the IC50 is 20000 to 100000 nM.
As for `CC[C@@]12C=C(c3nc(C)c(C)o3)n3c4c(c5c(S(=O)(=O)NC)cccc53)CCN(CCC1)[C@H]42` [Example 73, (4^1S,13aS)-12-(4,5-dimethyloxazol-2-yl)-13a-ethyl-N-methyl-2,3,4^1,5,6,13a-hexahydro-1H-indolo[3,2,1-de]pyrido[3,2,1-ij][1,5]naphthyridin-7-sulfonamide], the figure is 1000 to 20000 nM.
For the molecule `CC[C@@]12C=C(c3nc(C)c(C)o3)n3c4c(c5c(S(=O)(=O)N(C)C)cccc53)CCN(CCC1)[C@H]42` [Example 74, (4^1S,13aS)-12-(4,5-dimethyloxazol-2-yl)-13a-ethyl-N,N-dimethyl-2,3,4^1,5,6,13a-hexahydro-1H-indolo[3,2,1-de]pyrido[3,2,1-ij][1,5]naphthyridin-7-sulfonamide], the IC50 is 1000 to 20000 nM.
As for `CC[C@@]12C=C(c3nc(C)c(C)o3)n3c4c(c5c(S(=O)(=O)NCCCOC)cccc53)CCN(CCC1)[C@H]42` [Example 75, (4^1S,13aS)-12-(4,5-dimethyloxazol-2-yl)-13a-ethyl-N-(3-methoxylpropyl)-2,3,4^1,5,6,13a-hexahydro-1H-indolo[3,2,1-de]pyrido[3,2,1-ij][1,5]naphthyridin-7-sulfonamide], the figure is 20000 to 100000 nM.

Values taken from patent US10017507B2, “Diaza-benzofluoranthrene compounds” (HARBIN PHARMACEUTICAL GROUP CO., LTD. GENERAL …, priority 2015, dated 2018).
